Where two headings read alike, the source gives them in different places.
Experiments:
[1] = Pharmacokinetic profile in mice after oral gavage; assay type: in vivo, mouse; design: unit: ng/mL; conditions: fasted male Hilltop mice, 10 mg/kg oral gavage, plasma
Experimental: Pharmacokinetic Profile in Mice
In this series of studies, the pharmacokinetic profile characteristics of compounds of the present invention were evaluated. The plasma concentration levels of the compounds were monitored in the blood stream (i.e., plasma) after oral gavage using Cmax, and area under the curve (AUC).
8 week old male Hilltop mice were fasted overnight. Animals were randomized into groups (n=9) by body weight. Mice were dosed with 10 mg/kg compound (in 20% PEG400/80% 0.5% carboxymethylcellulose (medium viscosity)+0.25% Tween-80) at a volume of […] through oral gavage. Blood was collected via orbital bleeding at 0, 0.25, 0.5, 1, 2, and 4 h post-dose, with no one mouse having more than 3 blood draws. Blood was collected in EDTA coated tubes. Samples were stored at −20° C. until analysis.
Quantitation of compound levels in plasma was accomplished by LC-MS/MS analysis. Standard curve and quality control samples were prepared in male CD-1 mouse plasma containing EDTA K^2+ as an anticoagulant at final concentrations ranging from 500 to 0.1 ng/mL. The plasma samples, calibration curve standards, and quality control samples were prepared in an identical method in a 96-well deep plate (1 mL) with a quenching solution (1:1 mixed acetonitrile:methanol containing the internal standard Reserpine @ 400 ng/mL). Low volume samples were supplemented with CD-1 mouse plasma. The plate was mixed on multi-tube vortexer for 1 min and centrifuged at 4000 rpm for 30 min at 4° C. (Sorvall® Super T21) before LC-MS/MS analysis. LC conditions were developed and optimized based on each compound as needed. The outlet of the column was coupled to AB Sciex 4000 QTrap Mass Spectrometer (AB Sciex, Brugg Switzerland). Detection was carried out using multiple reaction monitoring mode with positive-ion detection focusing. The pharmacokinetic parameters were derived from the plasma-time data and calculated using the standard non-compartmental method with WinNonlin (Pharsight, Mountain View, Calif.) or PK Solver (Comp. Meth. Prog. Biomed. (2010), 99, 306-314).
Values reported are the mean plasma concentration of three mice. […]

[2] = molecular target: T1, human TGR5 receptor (Homo sapiens, UniProt Q8TDU6); test: Human TGR5 cAMP production assay (hTGR5-CHO cells, DiscoveRx cAMP XS+ kit); assay type: cell-based; conditions: luminescent cAMP assay, read-out: Human TGR5 Lum. cAMP Activity (EC50)
T1 construct: host or cells: CHO-K1 (hTGR5-CHO)
T1 sequence (Q8TDU6 1-330): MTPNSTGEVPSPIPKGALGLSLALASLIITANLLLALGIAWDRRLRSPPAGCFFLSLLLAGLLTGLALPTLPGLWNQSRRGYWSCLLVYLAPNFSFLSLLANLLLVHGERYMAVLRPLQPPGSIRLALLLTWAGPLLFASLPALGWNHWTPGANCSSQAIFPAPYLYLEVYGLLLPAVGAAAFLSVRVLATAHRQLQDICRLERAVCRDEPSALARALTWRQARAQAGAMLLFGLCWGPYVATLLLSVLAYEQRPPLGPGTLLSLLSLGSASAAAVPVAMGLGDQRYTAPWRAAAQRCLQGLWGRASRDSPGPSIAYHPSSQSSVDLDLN
Method in brief: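 CHO-K1 cells stably expressing hTGR5, in PBS with IBMX and cAMP antibody, treated with half-log compound dilutions for 1 h at room temperature. cAMP measured by enzyme-fragment complementation luminescence after overnight detection; EC50 values reported.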

[3] = molecular target: T2, mouse TGR5 receptor (Mus musculus, UniProt Q80SS6); test: Mouse TGR5 HTRF cAMP production assay (HEK293-EBNA cells, Cisbio cAMP HiRange kit); assay type: cell-based; conditions: HEK293-EBNA cells overexpressing mouse TGR5, HTRF cAMP assay
T2 construct: host or cells: HEK293-EBNA (293 c18, ATCC CRL10852)
T2 sequence (Q80SS6 1-329): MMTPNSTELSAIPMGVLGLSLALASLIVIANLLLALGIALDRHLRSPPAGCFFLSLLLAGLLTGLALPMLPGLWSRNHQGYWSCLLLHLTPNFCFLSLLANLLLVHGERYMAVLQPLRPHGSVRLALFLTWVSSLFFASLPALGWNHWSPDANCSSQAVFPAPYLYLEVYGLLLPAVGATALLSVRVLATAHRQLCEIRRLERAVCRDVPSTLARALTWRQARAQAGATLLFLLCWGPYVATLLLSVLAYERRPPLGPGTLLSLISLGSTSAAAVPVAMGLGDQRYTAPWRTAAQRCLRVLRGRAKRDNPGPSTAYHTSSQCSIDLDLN
Method in brief: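 HEK293-EBNA cells stably expressing mouse TGR5 (episomal vector) were suspended in serum-free DMEM with 500 μM IBMX and exposed to 12-point half-log compound dilutions for 1 h at room temperature. cAMP was detected by HTRF (d2-cAMP/anti-cAMP cryptate, 1 h, room temperature), giving EC50 from duplicates.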

Compound | Cmax ([1]; mouse, read-out: Cmax) [ng/mL] | EC50 [2] [µM] | EC50 [3] [µM] | Cmax [1] [ng/mL]
C[N+](C)(C)CCC[C@H](NC(=O)CCCC1CCN(c2cc(N3CCC[C@H]3C(=O)NCCc3ccc(C#N)cc3)nc(C(F)(F)F)n2)CC1)C(=O)O [Compound 105, (S)-4-carboxy-4-(4-(1-(6-((S)-2-((4-cyanophenethyl)carbamoyl)pyrrolidin-1-yl)-2-(trifluoromethyl)pyrimidin-4-yl)piperidin-4-yl)butanamido)-N,N,N-trimethylbutan-1-aminium] | 51 | < 0.1 | < 0.1 | 
N#Cc1ccc(CCNC(=O)[C@@H]2CCCN2c2cc(N3CCC(OCC#CCO)CC3)nc(C(F)(F)F)n2)cc1 [Compound 26] | 55 | < 0.1 | < 0.1 | 
O=C(NCCCC1CCN(c2cc(N3CCC[C@H]3C(=O)NCCc3ccc(C(F)(F)F)cc3)nc(C(F)(F)F)n2)CC1)NCCS(=O)(=O)O [Compound 87, (S)-2-(3-(3-(1-(2-(trifluoromethyl)-6-(2-((4-(trifluoromethyl)phenethyl)-carbamoyl)-pyrrolidin-1-yl)pyrimidin-4-yl)piperidin-4-yl)propyl)ureido)-ethanesulfonic acid] | 35 | < 0.1 | < 0.1 | 
N=C(N)NCCC[C@H](NC(=O)CCCC1CCN(c2cc(N3CCC[C@H]3C(=O)NCCc3ccc(C(F)(F)F)cc3)nc(C(F)(F)F)n2)CC1)C(=O)O [Compound 74, (S)-5-guanidino-2-(4-(1-(2-(trifluoromethyl)-6-((S)-2-((4-(trifluoromethyl)phenethyl)carbamoyl)pyrrolidin-1-yl)pyrimidin-4-yl)piperidin-4-yl)butanamido)pentanoic acid] | 3.6 | < 0.1 | < 0.1 | 
N#Cc1ccc(CCNC(=O)[C@@H]2CCCN2c2cc(N3CCC(COCC(=O)NCCS(=O)(=O)O)CC3)nc(C(F)(F)F)n2)cc1 [Compound 89, (S)-2-(2-((1-(6-(2-((4-cyanophenethyl)carbamoyl)pyrrolidin-1-yl)-2-(trifluoromethyl)pyrimidin-4-yl)piperidin-4-yl)methoxy)acetamido)-ethanesulfonic acid] | 2.1 | < 0.1 | < 0.1 | 
O=C(CCCC1CCN(c2cc(N3CCC[C@H]3C(=O)NCCc3ccc(C(F)(F)F)cc3)nc(C(F)(F)F)n2)CC1)NCCNS(=O)(=O)c1ccc(C(=O)O)cc1 [Compound 94, (S)-4-(N-(2-(4-(1-(2-(trifluoromethyl)-6-(2-((4-(trifluoromethyl)phenethyl)-carbamoyl)-pyrrolidin-1-yl)pyrimidin-4-yl)piperidin-4-yl)butanamido)ethyl)-sulfamoyl)benzoic acid] | 26 | < 0.1 | < 0.1 | 
O=C(CCCC1CCN(c2cc(N3CCC[C@H]3C(=O)NCCc3ccc(Cl)cc3)nc(C(F)(F)F)n2)CC1)NCS(=O)(=O)O [Compound 137, (S)-(4-(1-(6-(2-((4-chlorophenethyl)-carbamoyl)pyrrolidin-1-yl)-2-(trifluoromethyl)pyrimidin-4-yl)-piperidin-4-yl)butanamido)-methanesulfonic acid] | 22 | < 0.1 | < 0.1 | 
N#Cc1ccc(CCNC(=O)[C@@H]2CCCN2c2cc(N3CCC(CCCNC(=O)NCS(=O)(=O)O)CC3)nc(C(F)(F)F)n2)cc1 [Compound 118, (S)-(3-(3-(1-(6-(2-((4-cyanophenethyl)carbamoyl)pyrrolidin-1-yl)-2-(trifluoromethyl)pyrimidin-4-yl)piperidin-4-yl)propyl)ureido)methanesulfonic acid] | 7.9 | < 0.1 | < 0.1 | 

Second part, the molecule after the results:

Cmax ([1]; mouse, read-out: Cmax) [ng/mL] | EC50 [2] [µM] | EC50 [3] [µM] | Cmax [1] [ng/mL] | Compound
64 | < 0.1 | < 0.1 |  | O=C(CCCC1CCN(c2cc(N3CC[C@H]3C(=O)NCCc3ccc(C(F)(F)F)cc3)nc(C(F)(F)F)n2)CC1)NCS(=O)(=O)O [Compound 255, (S)-(4-(1-(2-(trifluoromethyl)-6-(2-((4-(trifluoromethyl)phenethyl)carbamoyl)azetidin-1-yl)pyrimidin-4-yl)piperidin-4-yl)butanamido)methanesulfonic acid]
 | < 0.1 | < 0.1 | 48 | N#Cc1ccc(CCNC(=O)[C@@H]2CCN2c2cc(N3CCC(CCNS(=O)(=O)NCCC(=O)O)CC3)nc(C(F)(F)F)n2)cc1 [Compound 355]
1.7 | < 0.1 | < 0.1 |  | N=C(N)NCCS(=O)(=O)N1CCN(c2cc(N3CCC[C@@H](C(=O)NCCc4ccc(C(F)(F)F)cc4)C3)nc(C(F)(F)F)n2)CC1 [Compound 349, (R)-1-(6-(4-((2-guanidinoethyl)sulfonyl)piperazin-1-yl)-2-(trifluoromethyl)-pyrimidin-4-yl)-N-(4-(trifluoromethyl)phenethyl)piperidine-3-carboxamide]
37 | < 0.1 | < 0.1 |  | COc1cc(C(F)(F)F)ccc1CCNC(=O)[C@@H]1CCCN(c2cc(N3CCC(CCO)CC3)nc(C(F)(F)F)n2)C1 [Compound 332, (R)-1-(6-(4-(2-hydroxyethyl)piperidin-1-yl)-2-(trifluoromethyl)pyrimidin-4-yl)-N-(2-methoxy-4-(trifluoromethyl)-phenethyl)piperidine-3-carboxamide]
92 | < 0.1 | < 0.1 |  | O=C(O)CN1CCC(CCCC2CCN(c3cc(N4CC[C@H]4C(=O)NCCc4ccc(C(F)(F)F)cc4)nc(C(F)(F)F)n3)CC2)CC1 [Compound 281, (S)-2-(4-(3-(1-(2-(trifluoromethyl)-6-(2-((4-(trifluoromethyl)phenethyl)carbamoyl)-azetidin-1-yl)pyrimidin-4-yl)piperidin-4-yl)propyl)piperidin-1-yl)acetic acid]
